Data published in patent publication US8012944B2, “Method for treating cancer using IAP antisense oligomer and chemotherapeutic agent” (Pharmascience Inc., priority 2003, dated 2011).
Oligonucleotides are written 5' to 3', each unit as a sugar letter and its base; * is a phosphorothioate linkage, no mark a phosphodiester; rarer units and linkages stand in square brackets, end groups in braces. Plain capitals give the bases only. d = 2'-deoxy (DNA)

How the values were obtained:
[1] = mouse, in vivo
Source text: (§1) Mice were observed daily. Body weight measurements and signs of stress (e.g., lethargy, ruffled coat, ataxia) were used to detect possible toxicities. Animals with ulcerated tumor, or tumor volumes of 1 cm^3 or greater were killed. Digital caliper measurements of tumors were converted into mean tumor size (cm^3) using the formula: ½[length (cm)]×[width (cm)]^2. An average tumor size per mouse was used to calculate the group mean tumor size±SE (n=6 mice) from at least two independent experiments per group.

[2] = tested on: subcutaneous H460 human non-small-cell lung tumor xenografts; assay: Systemic (i.p.) oligonucleotides with or without vinorelbine in H460 xenografts; type: in vivo, SCID-RAG2 mice; settings: for antitumor efficacy on H460 xenografts (in words): systemic, oligonucleotide 15 mg/kg i.p., VNB 5 or 10 mg/kg i.v.
Protocol: (§2) Initial systemic PS-oligonucleotide studies were designed without any chemotherapeutic agents. SCID-RAG2 mice were inoculated with H460 human lung carcinoma cells (s.c. shoulder injection of 10^6 cells) and treatments with G4 and F3 AS PS-oligonucleotides, as well as a scrambled control, were initiated three days after tumor inoculation. Nucleobase oligomer injections were administered i.p. at 12.5 mg/kg three times a week for three weeks. At the end of the treatment period, mean tumor sizes in the groups treated with either G4 or F3 AS oligonucleotides were ˜50% smaller than in the group treated with a scrambled control oligonucleotides (FIG. 15). The same treatment protocol was tested on female SCID-RAG2 mice inoculated orthotopically with MDA-MB-435/LCC6 human breast carcinoma cells. Two weeks after the last treatment (day 35) tumor volumes of mice treated with F3, C5 or G4 AS oligonucleotides were 70%, 60%, and 45%, respectively, smaller than vehicle controls (FIG. 16).
We conducted additional examination of the antitumor effects of G4 AS oligonucleotides in SCID-RAG2 mice bearing xenografts of H460 human non-small-cell lung tumors implanted subcutaneously. Saline-treated control tumors grew reproducibly to a size of 0.75 cm^3 within approximately 24 days (FIG. 17). Oligonucleotide treatments were initiated three days after tumor cell inoculation. G4 AS oligonucleotides (5 to 15 mg/kg) were administered using a treatment schedule of i.p. injections given once a day on days 3-7, 10-14, and 17-21. The treatment with 5 or 15 mg/kg G4 AS oligonucleotides greatly delayed tumor growth: on day 24 mean tumor sizes were 0.75, 0.45 and 0.29 cm^3 in control, 5 and 15 mg/kg treated groups, respectively (FIG. 18A). There was a dose-dependent inhibition of tumor growth. […] A dose of 15 mg/kg was selected for the future combination treatment regimens with anticancer drugs.
The human non-small cell lung cancer cell line (large cell type) NCI-H460 (H460) was obtained from ATCC and maintained in RPMI 1640 supplemented with 10% FCS at 37° C. in a humidified atmosphere containing 5% CO2. Cells were used in exponential growth phase, up to a maximum of 25 in vitro passages. Male SCID-RAG2 mice (7-9 weeks old, 23-26 g) were obtained from British Columbia Cancer Agency Joint Animal Facility breeding colony and kept in aseptic environments. A tumor model of NCI-H460 cells in SCID-RAG2 mice was established by subcutaneous implantation of 1×10^6 NCI-H460 cells on the back of mice.
(§3) Efficacy experiments were conducted in male RAG2 immunodeficient mice bearing NCI-H460 tumours or female RAG2 mice bearing LCC6 tumors. Treatments were commenced on day 3 after tumor inoculation. Saline (controls), G4 AS oligonucleotides (5 or 15 mg/kg), or G4 SC oligonucleotides (5 or 15 mg/kg) were administered i.p. daily for five doses a week over a three week regimen. Vinorelbine (VNB, 5 or 10 mg/kg) was administered i.v. via the tail vein, either alone or in combination with oligonucleotides, at day 3, 7, 11 and 17 after tumor inoculation. When oligonucleotides were administered in combination with VNB, the drug treatment was performed four hours after ODN treatment.
as §1

XIAP protein [3] = assay: XIAP protein knock-down in H460 cells (western blot, densitometry); type: cell-based, human
Protocol: FIGS. 3 and 4 are graphs showing the effects of 4×4 mixed backbone (MBO) FG8 or E12 oligonucleotides in amounts of 31 nM (FIG. 3) or 63 nM (FIG. 4). H460 lung carcinoma cells were transfected for 18 hours on one, two, or three consecutive days using 125 nM MBOs and Lipofectamine 2000. Samples for western analysis were harvested at the indicated time. Scanning densitometry was performed, and XIAP protein levels were normalized to GAPDH and compared to a mock control set to 100%. The indicated percentages express % XIAP protein knockdown versus specific scrambled controls.
(§4) One day prior to transfection, H460 cells were plated in 6- or 96-well tissue culture plates. Phosphorothioate antisense oligonucleotides were delivered into cells with Lipofectamine 2000 (Life Technologies) in the form of liposome-oligonucleotide complexes. Following a 4.5 or 6 h transfection, the transfection medium was replaced with RPMI medium containing 10% FBS, and the cells incubated for another 24 or 48 h.
(§5) The cells or tumor tissue samples were lysed with ice-cold lysis buffer (50 mM Tris, 150 mM NaCl, 2.5 mM EDTA, 0.1% SDS, 0.5% sodium deoxycholate, 1% NP-40, 0.02% sodium azide) containing protease inhibitors (Complete-Mini protease inhibitor tablets; Boehringer Mannheim GmBH, Mannheim, Germany). After incubation for 30 min on ice, samples were centrifuged at 10,000 rpm for 15 min, and stored at −20° C. Protein content in the lysed extracts was determined using a detergent-compatible Bio-Rad assay (Bio-Rad Labs, Hercules, Calif.). Equal amounts of protein (40 μg/lane) were separated on 12% SDS-polyacrylamide gels or 4-15% gradient SDS-polyacrylamide pre-made gels (Bio-Rad) and transferred to nitrocellulose membranes. Primary antibodies against XIAP, Bcl-2 (DAKO, Glostrup, Denmark), Bax (Sigma, St. Louis, Mo.), β-actin (Sigma), caspase-3 (BD PharMingen, San Diego, Calif.), and PARP (BD PharMingen) were used. The secondary antibody was the appropriate horseradish-conjugated anti-mouse or anti-rabbit IgG (Promega, Madison, Wis.). Proteins were detected by enhanced chemiluminescence (ECL; Amersham Pharmacia Biotech, Buckinghamshire, England) and visualized after exposure to Kodak autoradiography film. Scanning densitometry (Molecular Dynamics, Sunnyvale, Calif.) was performed to quantify band intensities by volume/area integration. The amount of XIAP, caspase-3, Bcl-2 and Bax in cells was normalized to their respective lane β-actin levels, upon stripping and reprobing.

[4] = tested on: MDA-MB-435/LCC6 human breast carcinoma xenografts; assay: Systemic (i.p.) PS-oligonucleotides in LCC6 breast carcinoma xenografts; type: in vivo, female SCID-RAG2 mice; settings: 12.5 mg/kg i.p.; day 35, two weeks after the last treatment
Protocol: as §2, §3

pro-caspase-3, PARP = assay: Pro-caspase-3 and PARP protein in H460 cells (western blot); type: cell-based, human; settings: 1.2 μM
Protocol: as §4, §5

Bcl-2 and Bax = assay: Bcl-2:Bax ratio in H460 cells (western blot); type: cell-based, human; settings: 1.2 μM
Protocol: FIGS. 11A and 11B are schematic illustrations showing XIAP oligonucleotide-mediated effects on caspase activation. The effect of XIAP oligonucleotides F3, G4, or C5, or their respective RP and SC ODN controls at 1.2 μM on the expression of pro-caspase-3, PARP (both full length (116 kDa) and processed (85 kDa)) (FIG. 10A) and Bcl-2 and Bax protein levels (FIG. 10B) in transfected H460 cells compared to control is shown. Proteins expression was analyzed by western blotting. Bcl-2 and Bax protein levels were normalized to cellular actin levels and quantified by densitometry. […]
The cells or tumor tissue samples were lysed with ice-cold lysis buffer (50 mM Tris, 150 mM NaCl, 2.5 mM EDTA, 0.1% SDS, 0.5% sodium deoxycholate, 1% NP-40, 0.02% sodium azide) containing protease inhibitors (Complete-Mini protease inhibitor tablets; Boehringer Mannheim GmBH, Mannheim, Germany). […] Protein content in the lysed extracts was determined using a detergent-compatible Bio-Rad assay (Bio-Rad Labs, Hercules, Calif.). […] Proteins were detected by enhanced chemiluminescence (ECL; Amersham Pharmacia Biotech, Buckinghamshire, England) and visualized after exposure to Kodak autoradiography film. Scanning densitometry (Molecular Dynamics, Sunnyvale, Calif.) was performed to quantify band intensities by volume/area integration. […]

T24 cells = assay: Visual inspection of T24 cell morphology after transfection; type: cell-based, human; settings: twenty hours after transfection
Source text: The occurrence of cytoxicity induced by oligonucleotide E4 was examined by visually inspecting T24 cells that were left untreated, mock transfected, or transfected with E4, E4 scrambled, E4 reverse polarity, or E4 mismatched oligonucleotides. Twenty hours after transfection, the cells were examined for morphology (FIG. 5D).

XIAP protein [5] = assay: XIAP protein knock-down in T24 cells (XIAP ELISA, relative to total protein); type: cell-based, human
Summary of the method: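 T24 bladder carcinoma cells transfected with antisense oligonucleotides using Lipofectamine plus in serum-free, antibiotic-free McCoy's medium for three hours, then serum added. XIAP protein measured by colorimetric sandwich ELISA on day 4, normalized to total cellular protein and compared with mock transfection.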

XIAP mRNA = XIAP mRNA knock-down in H460 cells (real-time RT-PCR / TaqMan); type: cell-based, human
Summary of the method: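 NCI-H460 cells transfected with phosphorothioate antisense oligonucleotides via Lipofectamine 2000; RNA isolated after 6 h treatment. XIAP mRNA quantified by one-step TaqMan real-time RT-PCR, comparative Ct (threshold 30× baseline SD), normalized to GAPDH and expressed relative to untreated control cells.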

XIAP RNA = XIAP RNA knock-down in T24 cells (TaqMan quantitative PCR); type: cell-based, human
Summary of the method: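 T24 bladder carcinoma cells (1.5×10^4/well) cultured 24 h in antibiotic-free McCoy's medium, then transfected with antisense oligonucleotides using Lipofectamine-based conditions optimized on survivin knock-down. XIAP mRNA measured by TaqMan RT-qPCR, quantified relative to GAPDH by the comparative Ct method.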

H460 cells [6] = assay: H460 cell growth, viability or death (MTT assay); type: cell-based, human; settings: 1.2 μM
Protocol: Growth inhibition of […] cells was determined by the colorimetric MTT cell viability/proliferation assay. In brief, cells were treated with liposome-oligonucleotide complexes for 4.5 h, then incubated for another 48 h at 37° C. in medium without transfection reagent or oligonucleotides in the presence or absence of anticancer drugs. MTT (25 μg/well) was added to each well, and the plates incubated for 3 h at 37° C. Following the incubation step, the colored formazan product was dissolved by the addition of 200 μl DMSO. Plates were read using the microtiter plate reader (Dynex Technologies Inc., Chantilly, Va.) at a wavelength of 570 nm. The percentage of surviving cells in wells treated with oligonucleotides was normalized to untreated controls. All assays were performed in triplicate.

H460 cells [7] = assay: Nuclear morphology (DAPI staining); type: cell-based, human; settings: 1.2 μM
Protocol: Cells were treated with liposome-oligonucleotde complexes for 4.5 h, and incubated for another 48 h at 37° C. in the medium without transfection reagent or oligonucleotides. Cells were harvested and stained with 0.10 μg/ml DAP1 (4′, 6-diamidino-2-2-phenylindole) for 30 min at room temperature. Cells were placed on a glass slide, cytospun, and viewed with a Leica microscope and 40× objective lens under UV fluorescent illumination. Digital images were captured using Imagedatabase V. 4.01 Software (Leica, Germany).

H460 cells [8] = assay: Apoptotic flow cytometric assay (PI staining, hypo-diploid DNA content); type: cell-based, human; settings: 1.2 μM, untreated control 16.6%
Protocol: Cells were treated with liposome-oligonucleotide complexes for 4.5 h, and incubated for another 48 h in the medium without transfection reagent at 37° C. Following incubation, cells were harvested, washed twice with sample buffer (0.5% glucose in PBS without Ca^++ and Mg^++), and fixed in cold 70% ethanol at 4° C. for at least 18 hrs. Samples were centrifuged at 3000 rpm for 10 min, then resuspended in sample buffer containing 50 μg/ml propidium iodide (PI) and 400 U/ml RNase A. Samples were incubated for 30 min at room temperature and 30 min on ice, followed by flow cytometry analysis. EXPO Software (Applied Cytometry Systems, Sacramento, Calif.) was used to generate histograms, which were used to determine the cell cycle phase distribution after debris exclusion. The Sub G1/G0 cell fraction was considered as representative for apoptotic cells.

CCC1=C[C@@H]2CN(C1)Cc1c([nH]c3ccccc13)[C@@](C(=O)OC)(c1cc3c(cc1OC)N(C)[C@H]1[C@@](O)(C(=O)OC)[C@H](OC(C)=O)[C@]4(CC)C=CCN5CC[C@]31[C@@H]54)C2 [VNB, vinorelbine, reference compound]
signs of toxicity in mice [1]: without showing significant signs of undesirable toxicity | average tumor size ([2]; day 29, VNB 5 mg/kg, oligonucleotides 15 mg/kg): 0.59±0.04 cm^3 | antitumor efficacy on H460 xenografts (in words) [2]: significant tumor growth suppression

ATCTTCTCTTGAAAATAGG (DNA, all phosphorothioate, methylation of C not given here) [F3 AS]
reduction of XIAP protein level (XIAP protein [3]; 1.2 μM, 24 h after the end of transfection): 50% | tumor volumes smaller than vehicle controls [4]: 70% | reduction of pro-caspase-3 protein levels compared to untreated control (pro-caspase-3, PARP): 40% | mean tumor size smaller than scrambled control group ([2]; PS-oligonucleotides 12.5 mg/kg i.p. three times a week for three weeks, end of treatment): ~50% | ratio of Bcl-2:Bax (Bcl-2 and Bax): unchanged

CGCACGGTATCTCCTTCAC (antisense; chemistry not fully specified) [Code E4]
signs of toxicity (cell morphology) (T24 cells): showed signs of toxicity | XIAP down-regulation T24 protein (XIAP protein [5]): 34% | XIAP protein levels relative to total protein, compared to mock transfection (in words) (XIAP protein [5]; first screen of the library): some decrease | XIAP down-regulation H460 RNA (XIAP mRNA): 51% | XIAP down-regulation T24 RNA (XIAP RNA): 47%

GGCTCTTTGCCCACTGAAT (dG*dG*dC*dT*dC*dT*dT*dT*dG*dC*dC*dC*dA*dC*dT*dG*dA*dA*dT) [G4 SC, reference compound]
cell death (H460 cells [6]; H460 cells): less than 10% | reduction of H460 cell growth relative to untreated control (H460 cells [6]; MTT, 48 hours after transfection): less than 10% | effect on XIAP protein levels (in words) (XIAP protein [3]): little XIAP loss | nuclear morphological changes characteristic of apoptosis (H460 cells [7]): Few cells showed these morphological changes | effect on caspase-3 or PARP protein expression (pro-caspase-3, PARP): did not have any effect | tumors reduced in size, % of control tumors ([2]; 15 mg/kg, day 21 or 24): 24% | antitumor efficacy on H460 xenografts (in words) [2]: no therapeutic activity | hypo-diploid DNA content of cells (H460 cells [8]): 22.1%
